Counter-ions that a name gives are not always drawn.
Tests used:
[1] = IV infusion from 0.2 mcg/kg/hr, schizophrenia patients
[2] = sublingual dose of 100 micrograms, human subjects; cited from earlier work
[3] = human, in vivo, iv

Time to reach Cmax [3]: 15 to 105 min
SMILES: Cc1cccc([C@H](C)c2cnc[nH]2)c1C [dexmedetomidine hydrochloride, (+) 4-(S)-[1-(2,3-dimethylphenyl)ethyl]-1H-imidazole]
patients in the treatment arm achieving a RASS score of at least −1 [1]: 9 out of 10
hypotension post-administration [2]: Hypotension was observed
patients in the treatment arm with agitation reduced to a minimum (PEC score of 7 or below) (IV infusion, schizophrenia patients): 9 out of 10
subjects with >=50% reduction in PEC score (IV route, schizophrenia): 7 of 10

Source: patent US11559484B2, “Film formulations containing dexmedetomidine and methods of producing them” (BioXcel Therapeutics, Inc., priority 2018, dated 2023)
